Measurements reported in ChEMBL document CHEMBL6074675, “4-Substituted-2-Thiazole Amides as Viral Replication Inhibitors of Alphaviruses” (J Med Chem, 2024).
The source made the active and inactive calls. No cut-off for these calls is given here.

Columns and labels:
[1] = Cytotoxicity against human NHDF cells assessed as reduction in cell viability incubated for 24 hrs by CellTiter Glo luminescence assay; type: toxicity, cell-based
Chikungunya virus [2] = experiment: Antiviral activity against Chikungunya virus 181/25 infected in human NHDF cells assessed as log reduction of virus titer at 10 uM treated with cells at 1 hr prior to infection and measured at 24 hrs post-infection by plaque assay; type: functional; settings: time 25 hrs
[3] = Cytotoxicity against human NHDF cells deficient of IRF3 assessed as reduction in cell viability incubated for 72 hrs by CellTiter Glo luminescence assay; type: toxicity, cell-based
[4] = Kinetic solubility of the compound in simulated intestinal fluid at pH 7.5 by LC-MS analysis; type: physicochemical; settings: read-out: Kinetic_solubility
[5] = Octanol/PBS buffer distribution coefficient, logD of the compound at pH 7.5 by LC-MS analysis; type: physicochemical
[6] = Half life of the compound in mouse liver microsomes in presence of NADPH by LC-MS/MS analysis; type: ADME, Microsome
[7] = Half life of the compound in human liver microsomes in presence of NADPH by LC-MS/MS analysis; type: ADME, Microsome
[8] = tested on: Venezuelan equine encephalitis virus; experiment: Antiviral activity against VEEV TC-83 infected in human NHDF cells assessed as reduction of virus titer treated with cells at 1 hr prior to infection and measured at 24 hrs post-infection by plaque assay; type: functional; settings: TC-83, NHDF, time 25 hrs
[9] = tested on: Venezuelan equine encephalitis virus; experiment: Antiviral activity against VEEV TC-83 infected in human NHDF cells assessed as log reduction of virus titer at 10 uM treated with cells at 1 hr prior to infection and measured at 24 hrs post-infection by plaque assay; type: functional; settings: time 25 hrs
West Nile virus [10] = experiment: Antiviral activity against West Nile virus NY99 infected in human HEK293 cells assessed as reduction of virus load measured at 3 days post-infection by focus-forming assay; type: functional; settings: NY99, HEK293, 72 h, time 3 day
West Nile virus [11] = experiment: Antiviral activity against West Nile virus NY99 infected in human HEK293 cells assessed as log reduction of virus titer at 10 uM measured at 3 days post-infection by focus-forming assay; type: functional; settings: time 3 day
dengue virus type 2 [12] = experiment: Antiviral activity against Dengue virus 2 NGC infected in human HEK293 cells assessed as reduction of virus load measured at 3 days post-infection by focus-forming assay; type: functional; settings: HEK293, 72 h, time 3 day
dengue virus type 2 [13] = experiment: Antiviral activity against Dengue virus 2 NGC infected in human HEK293 cells assessed as log reduction of virus titer at 10 uM measured at 3 days post-infection by focus-forming assay; type: functional; settings: time 3 day
Zika virus [14] = experiment: Antiviral activity against Zika virus PRABC59 infected in human HEK293 cells assessed as reduction of virus load measured at 3 days post-infection by focus-forming assay; type: functional; settings: PRABC59, HEK293, 72 h, time 3 day
Zika virus [15] = experiment: Antiviral activity against Zika virus PRABC59 infected in human HEK293 cells assessed as log reduction of virus titer at 10 uM measured at 3 days post-infection by focus-forming assay; type: functional; settings: time 3 day
[16] = Cytotoxicity against human HEK293 cells; type: toxicity, cell-based
[17] = target: Dihydroorotate dehydrogenase (quinone), mitochondrial (Homo sapiens) (UniProt Q02127); experiment: Inhibition of human DHODH
Sequence of Dihydroorotate dehydrogenase (quinone), mitochondrial (Homo sapiens) (Q02127 whole entry): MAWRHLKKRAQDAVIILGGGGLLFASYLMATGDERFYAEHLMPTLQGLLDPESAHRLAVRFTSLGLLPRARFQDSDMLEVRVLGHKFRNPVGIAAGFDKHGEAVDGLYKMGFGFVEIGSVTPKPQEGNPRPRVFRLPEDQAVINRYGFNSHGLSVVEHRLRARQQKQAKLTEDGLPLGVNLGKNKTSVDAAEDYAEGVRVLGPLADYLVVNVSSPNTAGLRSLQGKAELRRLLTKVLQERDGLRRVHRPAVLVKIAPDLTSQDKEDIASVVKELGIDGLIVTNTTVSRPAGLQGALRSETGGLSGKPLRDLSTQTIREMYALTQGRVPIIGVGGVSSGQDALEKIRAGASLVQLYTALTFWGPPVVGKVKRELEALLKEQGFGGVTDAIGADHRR

Homo sapiens [18] = species on record: Homo sapiens; experiment: Inhibition of Numb-asociated kinase (unknown origin) upto 10 uM relative to control
[19] = target: Epidermal growth factor receptor (Homo sapiens) (UniProt P00533); experiment: Inhibition of EGFR (unknown origin) upto 10 uM relative to control
Sequence of Epidermal growth factor receptor (Homo sapiens) (P00533 whole entry): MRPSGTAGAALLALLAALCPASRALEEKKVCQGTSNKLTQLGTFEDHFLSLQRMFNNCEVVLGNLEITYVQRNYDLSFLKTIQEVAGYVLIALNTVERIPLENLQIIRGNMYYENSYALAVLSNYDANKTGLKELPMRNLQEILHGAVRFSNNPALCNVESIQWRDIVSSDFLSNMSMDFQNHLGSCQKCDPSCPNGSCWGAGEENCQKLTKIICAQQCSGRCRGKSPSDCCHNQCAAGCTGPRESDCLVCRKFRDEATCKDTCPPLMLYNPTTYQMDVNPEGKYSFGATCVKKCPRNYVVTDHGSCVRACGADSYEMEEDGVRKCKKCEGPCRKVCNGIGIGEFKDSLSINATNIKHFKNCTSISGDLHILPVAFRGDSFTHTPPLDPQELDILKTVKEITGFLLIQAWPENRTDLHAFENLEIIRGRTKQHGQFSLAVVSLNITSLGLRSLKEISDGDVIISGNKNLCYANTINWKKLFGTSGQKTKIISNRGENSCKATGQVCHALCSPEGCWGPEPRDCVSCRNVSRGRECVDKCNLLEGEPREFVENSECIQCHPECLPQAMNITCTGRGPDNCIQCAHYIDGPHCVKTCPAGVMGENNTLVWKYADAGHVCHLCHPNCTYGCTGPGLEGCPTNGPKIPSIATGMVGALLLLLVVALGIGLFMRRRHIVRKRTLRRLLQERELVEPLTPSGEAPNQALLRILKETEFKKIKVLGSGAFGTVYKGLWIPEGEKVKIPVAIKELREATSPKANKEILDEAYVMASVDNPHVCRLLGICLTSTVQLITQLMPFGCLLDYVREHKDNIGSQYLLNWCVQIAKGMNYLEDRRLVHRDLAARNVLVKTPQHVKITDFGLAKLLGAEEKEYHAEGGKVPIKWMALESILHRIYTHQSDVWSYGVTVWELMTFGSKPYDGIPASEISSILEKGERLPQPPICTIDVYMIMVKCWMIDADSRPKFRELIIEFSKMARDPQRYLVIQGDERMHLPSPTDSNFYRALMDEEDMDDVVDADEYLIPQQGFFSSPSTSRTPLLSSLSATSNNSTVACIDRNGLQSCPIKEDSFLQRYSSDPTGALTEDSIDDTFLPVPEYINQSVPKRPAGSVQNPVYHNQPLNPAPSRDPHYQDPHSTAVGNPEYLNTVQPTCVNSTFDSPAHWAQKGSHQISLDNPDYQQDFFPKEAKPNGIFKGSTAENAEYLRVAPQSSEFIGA

Homo sapiens [20] = species on record: Homo sapiens; experiment: Inhibition of MAPK (unknown origin) upto 10 uM relative to control
Homo sapiens [21] = species on record: Homo sapiens; experiment: Inhibition of CDK (unknown origin) upto 10 uM relative to control
Homo sapiens [22] = species on record: Homo sapiens; experiment: Inhibition of PI3K/Akt/mTOR (unknown origin) upto 10 uM relative to control
Heme oxygenase 1 = target: T1, Heme oxygenase 1 (Homo sapiens, UniProt P09601); experiment: Inhibition of HO-1 (unknown origin)
T1 sequence (P09601 whole entry): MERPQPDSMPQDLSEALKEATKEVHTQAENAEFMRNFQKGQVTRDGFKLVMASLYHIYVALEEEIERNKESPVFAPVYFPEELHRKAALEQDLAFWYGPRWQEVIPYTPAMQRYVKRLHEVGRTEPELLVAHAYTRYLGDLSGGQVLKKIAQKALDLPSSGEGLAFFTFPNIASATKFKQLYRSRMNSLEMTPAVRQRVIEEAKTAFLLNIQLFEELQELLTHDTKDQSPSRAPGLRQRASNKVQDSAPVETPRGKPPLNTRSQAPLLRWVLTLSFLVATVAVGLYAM

[23] = Half life in C57BL/6 mouse at 1 mg/kg, iv; type: ADME, organism-based; settings: in vivo
[24] = AUC in C57BL/6 mouse at 1 mg/kg, iv; type: ADME, organism-based; settings: in vivo
[25] = Half life in C57BL/6 mouse at 40 mg/kg, ip; type: ADME, organism-based; settings: in vivo
[26] = AUC in C57BL/6 mouse at 40 mg/kg, ip; type: ADME, organism-based; settings: in vivo
[27] = Cmax in C57BL/6 mouse at 40 mg/kg, ip; type: ADME, organism-based; settings: in vivo
[28] = Bioavailability in C57BL/6 mouse at 40 mg/kg, ip; type: ADME, organism-based; settings: in vivo
[29] = Half life in C57BL/6 mouse at 40 mg/kg, po; type: ADME, organism-based; settings: in vivo
[30] = AUC in C57BL/6 mouse at 40 mg/kg, po; type: ADME, organism-based; settings: in vivo
[31] = Cmax in C57BL/6 mouse at 40 mg/kg, po; type: ADME, organism-based; settings: in vivo
[32] = Oral bioavailability in C57BL/6 mouse at 40 mg/kg; type: ADME, organism-based; settings: in vivo
[33] = Half life in C57BL/6 mouse at 40 mg/kg, sc; type: ADME, organism-based; settings: in vivo
[34] = AUC in C57BL/6 mouse at 40 mg/kg, sc; type: ADME, organism-based; settings: in vivo
[35] = Cmax in C57BL/6 mouse at 40 mg/kg, sc; type: ADME, organism-based; settings: in vivo
[36] = Bioavailability in C57BL/6 mouse at 40 mg/kg, sc; type: ADME, organism-based; settings: in vivo
Chikungunya virus [37] = experiment: Antiviral activity against Chikungunya virus 181/25 infected in human NHDF cells assessed as inhibition of viral entry at 10 uM pretreated with virus for 2 hrs prior to infection and measured at 24 hrs post-infection by plaque assay; type: functional, organism-based; settings: time 26.0 hrs
Chikungunya virus [38] = experiment: Antiviral activity against Chikungunya virus 181/25 infected in human NHDF cells assessed as inhibition of infectious virus production at 10 uM treated with infectious cells at 6 hrs post-infection and measured at 48 hrs post-infection following culturing on Vero cells by limiting dilution plaque assay; type: functional, organism-based; settings: time 42.0 hrs
Chikungunya virus [39] = experiment: (§1) Antiviral activity against Chikungunya virus 181/25 infected in human NHDF cells assessed as inhibition of viral RNA synthesis by measuring 49S genomic RNA accumulation at 10 uM treated with cells for 1 hr prior to infection and measured at 12 hrs post-infection by DIG-labeled probe based Northern blot analysis; type: functional, organism-based; settings: time 13.0 hrs
Chikungunya virus [40] = experiment: as §1, with “26S subgenomic” for “49S genomic”; type: functional, organism-based; settings: time 13.0 hrs
Chikungunya virus [41] = experiment: Antiviral activity against Chikungunya virus 181/25 infected in human NHDF cells assessed as inhibition of viral translation by measuring decrease in E2 protein expression at 10 uM cells treated with compound prior to infection and measured at 12 hrs post-infection by western blot analysis; type: functional, organism-based
Chikungunya virus [42] = experiment: Antiviral activity against Chikungunya virus 181/25 infected in C57BL/6J mouse assessed as reduction in footpad swelling at 80 mg/kg, ip bid for 3 days infected with virus at 2 hrs after first compound treatment and measured at 12 hrs post-final treatment by digital caliper analysis; type: functional, organism-based; settings: time 3.0 day
Chikungunya virus [43] = experiment: Antiviral activity against Chikungunya virus 181/25 infected in C57BL/6J mouse assessed as reduction in viral load in ipsilateral ankle at 80 mg/kg, ip bid for 3 days infected with virus at 2 hrs after first compound treatment and measured at 12 hrs post-final treatment; type: functional, organism-based; settings: time 3.0 day
Chikungunya virus [44] = experiment: Antiviral activity against Chikungunya virus 181/25 infected in C57BL/6J mouse assessed as reduction in viral load in contralateral ankle at 80 mg/kg, ip bid for 3 days infected with virus at 2 hrs after first compound treatment and measured at 12 hrs post-final treatment; type: functional, organism-based; settings: time 3.0 day
Chikungunya virus [45] = experiment: Antiviral activity against Chikungunya virus 181/25 infected in C57BL/6J mouse assessed as reduction in viral dissemination to spleen at 80 mg/kg, ip bid for 3 days infected with virus at 2 hrs after first compound treatment and measured at 12 hrs post-final dose by RT-qPCR analysis; type: functional, organism-based; settings: time 3.0 day
Chikungunya virus [46] = experiment: Antiviral activity against Chikungunya virus 181/25 infected in C57BL/6J mouse assessed as reduction in viral dissemination to quadriceps at 80 mg/kg, ip bid for 3 days infected with virus at 2 hrs after first compound treatment and measured at 12 hrs post-final dose by RT-qPCR analysis; type: functional, organism-based; settings: time 3.0 day
Chikungunya virus [47] = experiment: Antiviral activity against Chikungunya virus S27 infected in golden hamster BHK-21 cells assessed as inhibition of virus-induced cytopathic effect measured after 4 days by microscopic analysis; type: functional, organism-based; settings: S27, BHK-21, 96 h

CSc1ncccc1C(=O)Nc1nc(-c2cccc(Nc3ccc(C#N)cc3)c2)cs1
CC50 at 24 h [1]: > 30000 nM | log(activity) (Chikungunya virus [2]): 8.7 | CC50 at 72 h [3]: > 30000 nM | solubility kinetic [4]: < 1 µM | logD [5]: > 4.04 | half-life [6]: 1.23 h | half-life [7]: 0.383 h | EC90 [8]: 190 nM | log(activity) [9]: 5.9 | EC90 (West Nile virus [10]): 750 nM | log(activity) (West Nile virus [11]): 2.6 | EC90 (dengue virus type 2 [12]): 120 nM | log(activity) (dengue virus type 2 [13]): 2.6 | EC90 (Zika virus [14]): 170 nM | log(activity) (Zika virus [15]): 3.5 | CC50 [16]: > 30000 nM | inhibition [17]: Active | inhibition (Homo sapiens [18]): < 30% | inhibition [19]: < 30% | inhibition (Homo sapiens [20]): < 30% | inhibition (Homo sapiens [21]): < 30% | inhibition (Homo sapiens [22]): < 30% | EC50 (Heme oxygenase 1): > 50000 nM | half-life [23]: 1.78 h | AUC [24]: 821 ng·h/mL | half-life [25]: 3.52 h | AUC [26]: 30600 ng·h/mL | Cmax [27]: 2460 ng/mL | bioavailability [28]: 91% | half-life [29]: 2.38 h | AUC [30]: 15300 ng·h/mL | Cmax [31]: 2100 ng/mL | bioavailability [32]: 45% | half-life [33]: 5.7 h | AUC [34]: 1520 ng·h/mL | Cmax [35]: 142 ng/mL | bioavailability [36]: 5% | Activity (Chikungunya virus [37]): inactive | Activity (Chikungunya virus [38]): Active | Activity (Chikungunya virus [39]): inactive | Activity (Chikungunya virus [40]): inactive | Activity (Chikungunya virus [41]): Active | Activity (Chikungunya virus [42]): inactive | Activity (Chikungunya virus [43]): inactive | Activity (Chikungunya virus [44]): inactive | Activity (Chikungunya virus [45]): Active | Activity (Chikungunya virus [46]): Active

O=C(CCN1CCOCC1)c1c(CO)c2ccccc2[nH]c1=O
EC50 (Chikungunya virus [47]): 2200 nM
